One data set concerns C57BL/6NCrl mice. The data set can be described thus: Extended single-dose toxicity study (GLP, microdose approach). Type of data set: in vivo. How it is done: (§1) The precursor-induced toxicity was evaluated using the non-radiolabeled precursor in line with the IAEA and EMA guidelines. The non-clinical safety study was performed using the microdose approach I described in the ICH guideline M3 (R2). The study was designed as an extended single-dose toxicity study in one rodent species and performed under GLP conditions. NODAGA-LM3 toxicity was evaluated after intravenous administration on day 1 of the study, followed by an observation period of 14 days. 60 (30 males and 30 females) C57BL/6NCrl mice were divided into one dose group and one control group. The test item was administered once by i.v, administration into the tail vein.
(§2) In each of the two groups, 20 male and 20 female main animals were euthanized the day after dosing, whereas 10 male and 10 female recovery animals were kept for an observation period of 14 days after dosing to detect possible delayed occurrence or persistence of, or recovery from toxic effects. Three extra mice per sex were included as replacement animals. The dose group animals were injected with a 5 mg/kg vector in a 5 mL/kg dose volume. The control group underwent injection of the vehicle alone (5 mL/kg). The animals were examined twice daily for toxicity and morbidity/mortality signs. All animals were sacrificed for necropsy. Blood was taken before necropsy for analysis of hematologic and clinical biochemistry parameters. Organs were collected, weighted, and preserved in neutral buffered formaldehyde (4%) for histopathological examination. […] No effects on body weight gain or food consumption were noted. […] Therefore, these differences were considered to be unrelated to the test substance. […] All these changes were transitory and considered non-adverse.

Experiment in data set [1]: as above
It counts as in vivo, mice. The settings on record: both sexes, C57BL/6NCrl, mouse, in vivo, iv, 5 mg/kg; single i.v. dose, 14 days observation, mice; read-out: no adverse effect level (NOAEL). How it is done: as §1, §2

The nature of data set [2]: Specificity (blocking) study with excess DOTA-LM3. The settings on record: athymic nude Foxn1^nu, mouse, total radioactivity.
Procedure: (§4) Unless otherwise specified, the in vivo studies were performed on athymic nude Foxn1^nu 4-6 weeks-old mice. Animals were injected in the shoulder with HEK-SST2 cells (10^7 cells/200 μL) suspended in PBS. The in vivo experiments were performed when tumors reached a volume between 100-500 mm. At the intervention, all mice were between 7 and 11 weeks old.
(§5) The specificity study was performed parallel to pharmacokinetics studies. For this reason, NODAGA-LM3 was radiolabeled with ^64Cu.
(§6) The specificity of [^64Cu]Cu-NODAGA-LM3 for SSTR2-expressing tissues was evaluated in HEK-SST2 xenograft mice through a blocking study. The mice were administered with 0.15 MBq of [^64Cu]Cu-NODAGA-LM3 co-injected with a 2000-fold excess of DOTA-LM3 as a blocking agent. The mice were sacrificed 4 hours post-injection, and the organs were collected. weighed, and counted in a gamma counter.
For the next data set, the system named is HEK-SST2 xenograft mice. The data set is described as follows: Specificity (blocking) study with excess DOTA-LM3. To be noted: inferred from low, stable liver accumulation.
Data set [3] is described as follows: PET/CT imaging after [^61Cu]CuCl2 injection. It counts as in vivo.
A further data set concerns the target T1, SSTR4 (Homo sapiens, UniProt P31391).
T1 construct: expressed in transfected cells
The data set is described as follows: Binding affinity (IC50) to SSTR subtypes, displacement of [Leu,D-Trp,^125I-Tyr]-somatostatin-28. The settings on record: membrane pellet sections of SSTR4-expressing cells. The protocol: (§3) The binding affinity of Cu-NODAGA-LM3 was determined by measuring the IC50 by labelling the precursor with natural copper (^natCu). The IC50 value is the concentration in which 50% of the specific binding of a reference radioligand to the tested molecule is inhibited. The universal somatostatin radioligand [Leu,D-Trp,^125I-Tyr]-somatostatin-28 was used as a reference radioligand. The assay was performed on […] cryostat sections of membrane pellets prepared from SSTR1-, SSTR2-, SSTR3-, SSTR4-, and SSTR5-expressing cells incubated with increasing concentrations of ^natCu-NODAGA-LM3. IC50 values for each SSTR subtype were calculated by mathematically extracting the concentration of the tested molecule, causing 50% displacing of the specific bounded [Leu,D-Trp,^125I-Tyr]-somatostatin-28.

A further data set addresses T2, SSTR3 (Homo sapiens, UniProt P32745).
T2 construct: expressed in transfected cells
The data set is described as above. The settings on record: membrane pellet sections of SSTR3-expressing cells. The protocol:
as §3

Another data set deals with T3, SSTR1 (Homo sapiens, UniProt P30872).
T3 construct: expressed in transfected cells
Described as above. To be noted: membrane pellet sections of SSTR1-expressing cells. How it is done:
as §3

The target in a further data set is T4, SSTR5 (Homo sapiens, UniProt P35346).
T4 construct: expressed in transfected cells
Described as above. To be noted: membrane pellet sections of SSTR5-expressing cells. How it is done:
as §3

The target of another data set is T5, SSTR2 (Homo sapiens, UniProt P30874).
T5 construct: expressed in transfected cells
The description is as above. The settings on record: membrane pellet sections of SSTR2-expressing cells. The protocol: as §3

Experimental findings from US20260151517A1, “SOMATOSTATIN RECEPTOR-TARGETING RADIOPHARMACEUTICALS AND USES THEREOF” (Nuclidium AG, priority 2024, published 2026) are described below.

The structures appear in SMILES notation. Where a SMILES comes first, the peptide text is derived from it. Bridges are numbered along the chain shown (N, C = ends). [ ]: non-standard residue; d: D form. The star is where a group is joined. X2 = O=C(O)CN1CCN(CC(=O)O)CCN([C@H](CCC(=O)*)C(=O)O)CC1; dPhe(4-NHCONH2) = NC(=O)Nc1ccc(C[C@@H](N)C(=O)O)cc1; Phe(4-Cl) = N[C@@H](Cc1ccc(Cl)cc1)C(=O)O

T4 sequence (P35346 whole entry): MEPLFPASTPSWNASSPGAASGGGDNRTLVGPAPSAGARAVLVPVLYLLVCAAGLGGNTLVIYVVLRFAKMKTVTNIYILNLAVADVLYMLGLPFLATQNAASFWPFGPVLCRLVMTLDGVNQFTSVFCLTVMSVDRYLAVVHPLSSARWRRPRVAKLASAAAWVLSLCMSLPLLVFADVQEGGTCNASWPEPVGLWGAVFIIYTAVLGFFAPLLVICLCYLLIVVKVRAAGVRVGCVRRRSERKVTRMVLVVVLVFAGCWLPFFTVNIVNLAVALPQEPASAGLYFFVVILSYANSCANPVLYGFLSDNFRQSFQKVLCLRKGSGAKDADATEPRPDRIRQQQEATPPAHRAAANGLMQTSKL
T5 sequence (P30874 whole entry): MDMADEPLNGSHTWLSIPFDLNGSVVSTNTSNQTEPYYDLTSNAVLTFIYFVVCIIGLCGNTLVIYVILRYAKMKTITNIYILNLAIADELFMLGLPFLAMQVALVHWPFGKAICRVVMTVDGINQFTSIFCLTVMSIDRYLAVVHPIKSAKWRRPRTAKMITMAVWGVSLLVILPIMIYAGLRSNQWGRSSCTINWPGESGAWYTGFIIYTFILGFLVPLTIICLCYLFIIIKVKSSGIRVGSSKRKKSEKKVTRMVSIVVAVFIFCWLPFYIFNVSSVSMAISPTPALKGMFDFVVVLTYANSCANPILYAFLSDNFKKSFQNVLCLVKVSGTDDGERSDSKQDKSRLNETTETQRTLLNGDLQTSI
T2 sequence (P32745 whole entry): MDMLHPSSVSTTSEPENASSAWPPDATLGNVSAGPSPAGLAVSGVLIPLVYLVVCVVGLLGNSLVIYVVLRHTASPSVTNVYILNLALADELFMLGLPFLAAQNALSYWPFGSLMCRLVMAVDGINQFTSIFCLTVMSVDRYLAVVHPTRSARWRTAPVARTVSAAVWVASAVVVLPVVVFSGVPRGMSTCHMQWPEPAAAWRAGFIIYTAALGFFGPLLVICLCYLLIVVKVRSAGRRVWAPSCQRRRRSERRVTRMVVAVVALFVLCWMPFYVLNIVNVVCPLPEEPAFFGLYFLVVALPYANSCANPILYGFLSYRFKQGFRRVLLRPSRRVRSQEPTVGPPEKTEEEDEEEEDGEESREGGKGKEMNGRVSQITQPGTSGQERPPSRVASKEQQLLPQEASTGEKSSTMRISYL
T1 sequence (P31391 whole entry): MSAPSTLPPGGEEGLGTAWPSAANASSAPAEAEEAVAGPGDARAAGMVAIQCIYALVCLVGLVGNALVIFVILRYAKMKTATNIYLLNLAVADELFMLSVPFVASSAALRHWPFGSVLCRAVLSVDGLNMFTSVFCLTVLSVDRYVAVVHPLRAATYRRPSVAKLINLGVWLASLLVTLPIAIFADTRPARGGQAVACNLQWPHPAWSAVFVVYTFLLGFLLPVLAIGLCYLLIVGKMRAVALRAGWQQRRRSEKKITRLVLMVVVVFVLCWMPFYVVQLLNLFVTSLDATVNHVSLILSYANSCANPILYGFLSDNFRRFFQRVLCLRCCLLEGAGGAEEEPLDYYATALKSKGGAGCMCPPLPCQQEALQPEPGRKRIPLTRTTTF
T3 sequence (P30872 whole entry): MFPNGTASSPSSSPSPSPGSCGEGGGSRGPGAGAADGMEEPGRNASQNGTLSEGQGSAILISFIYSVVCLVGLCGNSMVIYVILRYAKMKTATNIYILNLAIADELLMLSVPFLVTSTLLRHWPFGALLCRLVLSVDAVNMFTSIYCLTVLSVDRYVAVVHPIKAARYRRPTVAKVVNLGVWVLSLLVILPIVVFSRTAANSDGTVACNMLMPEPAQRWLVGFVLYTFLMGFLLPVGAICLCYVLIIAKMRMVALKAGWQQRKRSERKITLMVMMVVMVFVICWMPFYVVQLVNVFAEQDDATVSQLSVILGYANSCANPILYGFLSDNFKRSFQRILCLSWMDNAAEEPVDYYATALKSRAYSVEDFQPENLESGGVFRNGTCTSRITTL
Procedure for HEK-SST2 xenograft mice: as §4, §5, §6

For orientation: NOAEL means the highest tested level that showed no adverse finding. On to `C[C@@H](O)[C@@H]1NC(=O)[C@H](CCCCN)NC(=O)[C@@H](Cc2ccc(NC(N)=O)cc2)NC(=O)[C@H](Cc2ccc(O)cc2)NC(=O)[C@H](NC(=O)[C@H](Cc2ccc(Cl)cc2)NC(=O)CC[C@H](C(=O)O)N2CCN(CC(=O)O)CCN(CC(=O)O)CC2)CSSC[C@@H](C(=O)N[C@H](Cc2ccc(O)cc2)C(N)=O)NC1=O` [NODAGA-LM3, 2,2′-(7-((R)-4-(((S)-1-(((4R,7S,10S,13R,16S,19S)-4-(((R)-1-amino-3-(4-hydroxyphenyl)-1-oxopropan-2yl)carbamoyl)-10-(4-aminobutyl)-16-(4-hydroxybenzyl)-7-((R)-1-hydroxyethyl)-6,9,12,15,18-pentaoxo-13-(4-ureidobenzyl)-1,2-dithia-5,8,11,14,17-pentaazacycloicosan-19-yl)amino)-3-(4-chlorophenyl)-1-oxopropan-2-yl)amino)-1-carboxy-4-oxobutyl)-1,4,7-triazonane-1,4-diyl)diacetic acid] (X2-[Phe(4-Cl)][dC]Y[dPhe(4-NHCONH2)]KTC[dY]-NH2; disulfide 2-7), for which the delayed toxicity result in the data set on C57BL/6NCrl mice (5 mg/kg i.v., 14 days observation) is “no indication of delayed toxicity”. For the same compound, in the data set on C57BL/6NCrl mice (5 mg/kg i.v., mice), the “adverse systemic or local effects” value is given as “did not cause any adverse systemic or local effects”, the “body weight gain or food consumption” value is listed as “No effects”, the clinical tolerability entry is recorded as “clinically well-tolerated” and the mortality entry was “no treatment-related mortality”. Besides, in the data set with C57BL/6NCrl mice (5 mg/kg i.v., necropsy and histopathology), the “macroscopic or microscopic findings” value was “No macroscopic or microscopic findings that could be attributed to treatment”. The “hematology, white cell count” value with C57BL/6NCrl mice (5 mg/kg i.v., transitory, considered non-adverse) was “increased white cell count in male mice”. In addition, the “safety ratio vs intended maximum patient dose 0.8 μg/kg” value in the data set on C57BL/6NCrl mice (considering the dose conversion factor) was “higher than 1,000 times”. In [1], the NOAEL at 14 days turned out to be 5 mg/kg.

What is called tissue uptake is the share of the injected amount in each gram of the tissue. With `C[C@@H](O)[C@@H]1NC(=O)[C@H](CCCCN)NC(=O)[C@@H](Cc2ccc(NC(N)=O)cc2)NC(=O)[C@H](Cc2ccc(O)cc2)NC(=O)[C@H](NC(=O)[C@H](Cc2ccc(Cl)cc2)NC(=O)CC[C@H](C(=O)O)N2CCN(CC(=O)O)CCN(CC(=O)O)CC2)CSSC[C@@H](C(=O)N[C@H](Cc2ccc(O)cc2)C(N)=O)NC1=O` [[^64Cu]Cu-NODAGA-LM3, metal not drawn] (X2-[Phe(4-Cl)][dC]Y[dPhe(4-NHCONH2)]KTC[dY]-NH2; disulfide 2-7), the tissue uptake at 4 h in data set [2] (bone, 0.15 MBq, Uptake Bone, 4 hours post-injection, non-blocking) amounted to 0.39 ± 0.07 %ID/g; in data set [2] (bone, with DOTA-LM3, 2000-fold excess, co-injected as blocking agent, Uptake Bone, 4 hours blocking, co-injected 2000-fold excess of DOTA-LM3), 0.01 ± 0.01 %ID/g; in data set [2] (pancreas, 0.15 MBq, Uptake Pancreas, 4 hours post-injection, non-blocking), 0.55 ± 0.1 %ID/g; in data set [2] (pancreas, with DOTA-LM3, 2000-fold excess, co-injected as blocking agent, Uptake Pancreas, 4 hours blocking, co-injected 2000-fold excess of DOTA-LM3) it was 0.12 ± 0.03 %ID/g; in [2] (stomach, 0.15 MBq, Uptake Stomach, 4 hours post-injection, non-blocking), 1.31 ± 0.55 %ID/g; in data set [2] (stomach, with DOTA-LM3, 2000-fold excess, co-injected as blocking agent, Uptake Stomach, 4 hours blocking, co-injected 2000-fold excess of DOTA-LM3), 0.43 ± 0.14 %ID/g. For the same compound, the tissue uptake at 4 h in data set [2] (tumor, 0.15 MBq, Uptake Tumor, 4 hours post-injection, non-blocking) worked out at 37.9 ± 3.43 %ID/g; in data set [2] (tumor, with DOTA-LM3, 2000-fold excess, co-injected as blocking agent, Uptake Tumor, 4 hours blocking, co-injected 2000-fold excess of DOTA-LM3), 0.52 ± 0.18 %ID/g. Moreover, the in vivo stability result in the data set with HEK-SST2 xenograft mice was “generally stable in vivo, with limited transchelation phenomena”.

Turning to `[Cl][61Cu][Cl]` [[^61Cu]CuCl2], in data set [3], the “excretion route of free isotopes” value is given as “excreted mainly through the liver”.

By IC50 is commonly meant the concentration needed to halve the response being measured. As for `C[C@@H](O)[C@@H]1NC(=O)[C@H](CCCCN)NC(=O)[C@@H](Cc2ccc(NC(N)=O)cc2)NC(=O)[C@H](Cc2ccc(O)cc2)NC(=O)[C@H](NC(=O)[C@H](Cc2ccc(Cl)cc2)NC(=O)CC[C@H](C(=O)O)N2CCN(CC(=O)O)CCN(CC(=O)O)CC2)CSSC[C@@H](C(=O)N[C@H](Cc2ccc(O)cc2)C(N)=O)NC1=O` [^natCu-NODAGA-LM3, metal not drawn] (X2-[Phe(4-Cl)][dC]Y[dPhe(4-NHCONH2)]KTC[dY]-NH2; disulfide 2-7), the 50% inhibitory concentration (IC50) on SSTR4 is no less than 1000 nM; on SSTR3, no less than 1000 nM; at SSTR1, no less than 1000 nM; on SSTR5, no less than 1000 nM; at SSTR2 it was 6.7 ± 1.5 nM.
